Assays:
VEGF mRNA = VEGF mRNA levels by Real-Time PCR under hypoxic conditions; format: cell-based, Human; settings: FIG. 11
Experimental: Human solid tumor cells are treated with various concentrations of a compound of the present invention or a control under hypoxic conditions. Actinomycin D blocks transcription and is used as a control. Total RNA is isolated using the RNeasy kit (Qiagen, Inc., Valencia, Calif., USA) or an acid-guanidinium thiocyanate-phenol-chloroform based method (See Chomczynski, P. and Sacchi, N., Anal. Biochem. 162: 156 (1987), hereby incorporated by reference).
Concentration of total RNA can be determined using the RiboGreen® fluorescent dye (Molecular Probes, Inc., Eugene, Oreg., USA) with the VersaFluor Fluorometer System (BioRad, Hercules, Calif., USA). Quality and integrity of total RNA can be assessed on 1% formaldehyde-agarose gels. First-strand cDNA was synthesized using 1 μg of total RNA (DNase-treated) in a 20 μl reverse transcriptase reaction mixture (Leclerc G J, Barredo J C, Clin. Cancer Res. 2001, 7:942-951, which is hereby incorporated by reference). A region of the VEGF mRNA is amplified using PCR primers. The cDNA amplified fragment (approximately 300 basepairs) is cloned into a vector such as the pCR2.1-TOPO vector (Invitrogen, Carlsbad, Calif., USA) to generate a plasmid. […] Real-Time quantitations are performed using the BIO-RAD iCycler iQ system (BioRad, Hercules, Calif., USA). The fluorescence threshold value can be calculated using the iCycle iQ system software.

[1] = tested on: Ewing's sarcoma (SK-NEP-1) and neuroblastoma (SY5Y and NGP) tumors; assay: Angiogenesis in excised tumors, immunochemistry with antibodies to Collagen IV; format: in vivo, mice; settings: Collagen IV staining of excised tumors, FIG. 10
Text: The tumors excised from the mice can also be used in immunochemistry experiments to determine levels of angiogenesis. […] SK-NEP-1 cells were previously believed to be a useful Wilms tumor model.

lung cancer tumor = assay: Lung cancer tumor growth in vivo; parameters: species or system nude mice; settings: 3 mg/kg twice a day or 30 mg/kg twice a day, vs vehicle, FIG. 1
Experimental: (§1) Compounds of the invention also show activity in the following pharmacodynamic model that assesses tumor VEGF levels. Briefly, HT1080 cells (a human fibrosarcoma cell line) may be implanted subcutaneously in nude mice. After seven days, mice may be administrated compounds orally at a desired dosage range, e.g., 200 mg/kg/day, for seven days. The tumors may then be excised from mice, weighed and homogenized in Tris-HCl buffer containing proteinase inhibitors. Moulder et al., Cancer Res. 61(24):8887-95 (2001). Tumor VEGF levels are subsequently measured using a human VEGF ELISA kit (R&D System). Protein concentrations of the homogenates are measured with a Bio-Rad Protein assay kit and tumor VEGF levels are normalized to the protein concentrations.
(§2) In similarly conducted experiments, compounds of the invention are shown to reduce lung cancer tumor growth (at a dosage of 3 mg/kg, twice a day, or 30 mg/kg, twice a day) (FIG. 1), Ewing's sarcoma and neuroblastoma tumor growth (at a dosage of 30 mg/kg, once a day) (FIG. 2), fibrosarcoma tumor growth (at a dosage of 10 mg/kg 3×/week) (FIG. 3), and human skin malignant melanoma (at a dosage of 10 mg/kg 5×/week) (FIG. 4) as compared to vehicle. Furthermore, the compounds of the invention are shown to reduce VEGF plasma and tumor levels in fibrosarcoma tumors as compared to vehicle (at a dosage of 10 mg/kg 3×/week) (FIG. 5).

[2] = tested on: neuroblastoma (SY5Y and NGP); assay: Neuroblastoma tumor growth in vivo; parameters: species or system nude mice; settings: 30 mg/kg once a day, vs vehicle, FIG. 2
Experimental: as §1
as §2, with “5). […]” for “5).”

colon cancer tumor = assay: Colon cancer tumor growth in vivo, alone or with 5-FU; parameters: species or system nude mice; settings: alone or in combination with 5-FU (fluorouracil), FIG. 6
fibrosarcoma tumor = assay: Fibrosarcoma tumor growth in vivo; parameters: species or system nude mice; settings: 10 mg/kg 3×/week, vs vehicle, FIG. 3
Experimental: as §1, §2

tumor = assay: Tumor growth in vivo, alone or with Avastin; parameters: species or system nude mice; settings: alone or in combination with Avastin (bevacizumab), FIG. 8
Experimental: as §1, §2

[3] = tested on: hypoxia-inducible endogenous VEGF expression in HeLa cells; assay: Hypoxia-inducible endogenous VEGF expression, VEGF ELISA of conditioned media (dose-response EC50); format: cell-based; settings: Homo sapiens
Procedure, shortened: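 HeLa cells were cultured 24-48 h under hypoxia (1% O2, 5% CO2, balance N2) with or without compound. Conditioned-media VEGF protein was measured by ELISA against a standard curve. EC50 and CC50 come from percentage-inhibition curves over, e.g., seven concentrations, with maximal inhibition set at 100%.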

[4] = tested on: HT1080 cells (a human fibrosarcoma cell line); assay: In vivo tumor growth PD model, tumor and plasma VEGF levels by human VEGF ELISA; parameters: species or system nude mice; settings: 10 mg/kg 3×/week, vs vehicle, FIG. 5
Experimental: as §1, §2

[5] = tested on: Ewing's sarcoma (SK-NEP-1); assay: Ewing's sarcoma tumor growth in vivo; parameters: species or system nude mice; settings: 30 mg/kg once a day, vs vehicle, FIG. 2
Experimental: as §1
as §2, with “5). […]” for “5).”

recombinant PDE5 = biological target: T1, recombinant PDE5 (Homo sapiens, UniProt O76074); assay: PDE5 activity, High-Efficiency Fluorescence Polarization Assay (HEFP); format: biochemical; settings: 45 minutes at room temperature, vs positive control Tadalafil, FIG. 12
T1 construct: purchased CalBioChem
Experimental: The compounds of the invention are tested to assess their affect on phosphodiesterase 5 (PDE5) activity. The affect on PDE5 activity is determined using the High-Efficiency Fluorescence Polarization Assay (HEFP) kit from Molecular Devices. The HEFP assay measures the activity of PDE-5 by using fluorescein-labeled derivatives of cGMP as a substrate. When hydrolyzed by PDE-5, fluorescein-labeled cGMP derivatives are able to bind to a binding reagent. The cGMP substrate:binding reagent complex results in a highly polarized fluorescent state.
After combining recombinant PDE5 (CalBioChem) and the cGMP substrate, the mixture is incubated at room temperature for 45 minutes in the presence or absence of compounds or a positive control (Tadalafil). The reaction is stopped upon addition of the binding reagent. Fluorescence polarization is determined on a Viewlux using a setting recommended by the manufacturer.

VEGF = assay: Tumor and plasma VEGF expression in vivo, alone or with Avastin; parameters: species or system nude mice; settings: alone or in combination with Avastin, FIG. 9
Experimental: as §1, §2

[6] = tested on: human skin malignant melanoma; assay: Malignant melanoma tumor growth in vivo; parameters: species or system nude mice; settings: 10 mg/kg 5×/week, vs vehicle, FIG. 4
Experimental: as §1, §2

human cervical carcinoma = assay: Cervical cancer tumor growth in vivo, alone or with Taxol; parameters: species or system nude mice; settings: alone or in combination with Taxol (paclitaxel), FIG. 7
[7] = HeLa cells under hypoxic conditions

With `COc1ccc(C2c3[nH]c4ccc(Cl)cc4c3CCN2C(=O)Oc2ccc(Cl)cc2)cc1` (centres unmarked) [Compound 10] the “VEGF mRNA levels” value (VEGF mRNA) was “does not affect VEGF mRNA levels”, the angiogenesis [1] was “inhibition of angiogenesis” and the “lung cancer tumor growth” value (lung cancer tumor) was “inhibition of lung cancer tumor growth”. The neuroblastoma tumor growth [2] was “inhibition”, the “colon cancer tumor growth” value (colon cancer tumor) was “inhibition of colon cancer tumor growth” and the fibrosarcoma tumor growth (fibrosarcoma tumor) was “inhibition of fibrosarcoma tumor growth”. For the same compound, the tumor growth (tumor) was “inhibition of tumor growth”, the EC50 [3, 7] was < 8 nM and the “VEGF expression in a fibrosarcoma tumor (tumor VEGF levels)” value [4] was “inhibition of VEGF expression”. The “Ewing's sarcoma tumor growth” value [5] was “inhibition”, the PDE-5 activity (recombinant PDE5) was “do not inhibit the activity of PDE-5” and the “plasma VEGF expression” value (VEGF) was “inhibition”. For the same compound, the “tumor VEGF expression” value (VEGF) was “inhibition”, the “malignant melanoma tumor growth” value [6] was “inhibition of malignant melanoma tumor growth” and the “cervical cancer tumor growth” value (human cervical carcinoma) was “inhibition of cervical cancer tumor growth”.
`CCOC(=O)N1CCc2c([nH]c3ccc(Br)cc23)C1c1ccc(C(C)C)cc1` (centres unmarked) [Compound 7] was tested, and the EC50 [3, 7] was < 8 nM and the PDE-5 activity (recombinant PDE5) was “do not inhibit the activity of PDE-5”.
`CC(C)c1ccc(C2c3[nH]c4ccc(Br)cc4c3CCN2c2ncccn2)cc1` (centres unmarked) [Compound 25] was tested, and the EC50 [3, 7] was < 8 nM and the PDE-5 activity (recombinant PDE5) was “do not inhibit the activity of PDE-5”.
`O=C(Oc1ccc(Cl)cc1)N1CCc2c([nH]c3ccc(Cl)cc23)C1c1ccc(OCC(O)CN2CCOCC2)cc1` (centres unmarked) [Compound 904] was tested, and the EC50 ([3]; HeLa cells, hypoxic conditions (1% O2, 5% CO2)) was < 8 nM.

Source: patent US8076352B2, “Administration of carboline derivatives useful in the treatment of cancer and other diseases” (PTC Therapeutics, Inc., priority 2004, dated 2011)
